Assays:
Format in all cases: in vivo
[1] = test system: upland rice (Oryza sp., var. Tebonnet, RICE); experiment: Pre-emerge test, crop safety; details: rating scale 0-100, 14 days after application
In short: (§1)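 Rating: 0–100 visual injury, 14 DAA. Application: acetone, 187 l/ha, 15–1000 g ai/ha, flat-fan track sprayer with nozzle 40–45 cm above soil or canopy. Post-emerge runs used 0.25% v/v surfactant on 2–3 leaf plants.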

[2] = test system: field corn (Zea mays L., var. Dekalb 535, CORN); experiment: Pre-emerge test, crop safety; details: rating scale 0-100, 14 days after application
In short: as §1

[3] = test system: sicklepod (Cassia obtusifolia, CASOB); experiment: Pre-emerge test, greenhouse herbicide activity screening; details: rating scale 0-100, 14 days after application
In short: (§2)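 Plants grown in 10 cm pots of sandy loam mix received acetone-dissolved compounds through a moving flat-fan nozzle. Doses ranged from 15 to 1000 g ai/ha. Pre-emerge pots were seeded one day earlier, post-emerge pots 8–21 days earlier. Fourteen days on, each pot was graded 0–100 for damage.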

[4] = test system: ivyleaf morningglory (Ipomoea hederacea, IPOHE); experiment: as above; details: rating scale 0-100, 14 days after application
In short: as §2

[5] = test system: green foxtail (Setaria viridis, SETVI); experiment: as above; details: rating scale 0-100, 14 days after application
In short: as §2

[6] = test system: johnsongrass (Sorghum halepense, SORHA); experiment: as above; details: rating scale 0-100, 14 days after application
In short: as §2

[7] = test system: lambsquarters (Chenopodium album, CHEAL); experiment: as above; details: rating scale 0-100, 14 days after application
In short: as §2

[8] = test system: common ragweed (Ambrosia artemisizfolia L., AMBEL); experiment: as above; details: rating scale 0-100, 14 days after application
In short: as §2

[9] = test system: large crabgrass (Digitaria sanguinalis, DIGSA); experiment: as above; details: rating scale 0-100, 14 days after application
In short: as §2

[10] = test system: barnyardgrass (Echinochloa crus-galli, ECHCG); experiment: as above; details: rating scale 0-100, 14 days after application
In short: as §2

[11] = test system: velvetleaf (Abutilon theophrasti, ABUTH); experiment: as above; details: rating scale 0-100, 14 days after application
In short: as §2

[12] = test system: redroot pigweed (Amaranthus retroflexus, AMARE); experiment: as above; details: rating scale 0-100, 14 days after application
In short: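 Herbicidal damage is scored 0 (none) to 100 (complete plant death) two weeks after a simulated field spray. Rates span 15–1000 g ai/ha, delivered in acetone at 187 l/ha. For post-emergence treatments, plants have 2–3 leaves and the spray carries 0.25% v/v non-ionic surfactant.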

[13] = test system: upland rice (Oryza sp., var. Tebonnet, RICE); experiment: Post-emerge test, crop safety; details: rating scale 0-100 (0 no damage, 100 complete death), 14 days after application
In short: (§3)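 Each test used a mechanized track sprayer delivering 187 l/ha of acetone solution at 15–1000 g ai/ha. Post-emerge foliage at 2–3 leaves was treated with added 0.25% v/v non-ionic surfactant and bottom-watered only. Injury was assessed on day 14, where 100 means total kill.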

[14] = test system: field corn (Zea mays L., var. Dekalb 535, CORN); experiment: Post-emerge test, crop safety; details: rating scale 0-100 (0 no damage, 100 complete death), 14 days after application
In short: as §3

[15] = test system: redroot pigweed (Amaranthus retroflexus, AMARE); experiment: Post-emerge test, greenhouse herbicide activity screening; details: rating scale 0-100 (0 no damage, 100 complete death), 14 days after application
In short: as §1

[16] = test system: sicklepod (Cassia obtusifolia, CASOB); experiment: as above; details: rating scale 0-100 (0 no damage, 100 complete death), 14 days after application
In short: as §1

[17] = test system: ivyleaf morningglory (Ipomoea hederacea, IPOHE); experiment: as above; details: rating scale 0-100 (0 no damage, 100 complete death), 14 days after application
In short: as §1

[18] = test system: green foxtail (Setaria viridis, SETVI); experiment: as above; details: rating scale 0-100 (0 no damage, 100 complete death), 14 days after application
In short: as §1

[19] = test system: lambsquarters (Chenopodium album, CHEAL); experiment: as above; details: rating scale 0-100 (0 no damage, 100 complete death), 14 days after application
In short: as §1

[20] = test system: common ragweed (Ambrosia artemisizfolia L., AMBEL); experiment: as above; details: rating scale 0-100 (0 no damage, 100 complete death), 14 days after application
In short: as §1

[21] = test system: large crabgrass (Digitaria sanguinalis, DIGSA); experiment: as above; details: rating scale 0-100 (0 no damage, 100 complete death), 14 days after application
In short: as §1

[22] = test system: barnyardgrass (Echinochloa crus-galli, ECHCG); experiment: as above; details: rating scale 0-100 (0 no damage, 100 complete death), 14 days after application
In short: as §1

[23] = test system: velvetleaf (Abutilon theophrasti, ABUTH); experiment: as above; details: rating scale 0-100 (0 no damage, 100 complete death), 14 days after application
In short: as §1

CCCCCCOC(=O)C(Cl)Cc1c(OC)c(Cl)cc(F)c1-n1c(=O)cc(C(F)(F)F)n(C)c1=O (single isomer, unassigned) [14-12]
Pre-emerge phytotoxicity rating, crop damage RICE ([1]; 63 g ai/ha): 0
Pre-emerge phytotoxicity rating, crop damage RICE ([1]; 250 g ai/ha): 0
Pre-emerge phytotoxicity rating, crop damage CORN ([2]; 63 g ai/ha): 0
Pre-emerge phytotoxicity rating, crop damage CORN ([2]; 250 g ai/ha): 0
Pre-emerge herbicidal activity, phytotoxicity rating CASOB ([3]; 63 g ai/ha): 0
Pre-emerge herbicidal activity, phytotoxicity rating CASOB ([3]; 250 g ai/ha): 0
Pre-emerge herbicidal activity, phytotoxicity rating IPOHE ([4]; 63 g ai/ha): 0
Pre-emerge herbicidal activity, phytotoxicity rating IPOHE ([4]; 250 g ai/ha): 0
Pre-emerge herbicidal activity, phytotoxicity rating SETVI ([5]; 63 g ai/ha): 0
Pre-emerge herbicidal activity, phytotoxicity rating SETVI ([5]; 250 g ai/ha): 0
Pre-emerge herbicidal activity, phytotoxicity rating SORHA ([6]; 63 g ai/ha): 0
Pre-emerge herbicidal activity, phytotoxicity rating SORHA ([6]; 250 g ai/ha): 0
Pre-emerge herbicidal activity, phytotoxicity rating CHEAL ([7]; 63 g ai/ha): 50
Pre-emerge herbicidal activity, phytotoxicity rating CHEAL ([7]; 250 g ai/ha): 60
Pre-emerge herbicidal activity, phytotoxicity rating AMBEL ([8]; 63 g ai/ha): 0
Pre-emerge herbicidal activity, phytotoxicity rating AMBEL ([8]; 250 g ai/ha): 0
Pre-emerge herbicidal activity, phytotoxicity rating DIGSA ([9]; 63 g ai/ha): 0
Pre-emerge herbicidal activity, phytotoxicity rating DIGSA ([9]; 250 g ai/ha): 100
Pre-emerge herbicidal activity, phytotoxicity rating ECHCG ([10]; 63 g ai/ha): 0
Pre-emerge herbicidal activity, phytotoxicity rating ECHCG ([10]; 250 g ai/ha): 0
Pre-emerge herbicidal activity, phytotoxicity rating ABUTH ([11]; 63 g ai/ha): 0
Pre-emerge herbicidal activity, phytotoxicity rating ABUTH ([11]; 250 g ai/ha): 20
Pre-emerge herbicidal activity, phytotoxicity rating AMARE ([12]; 63 g ai/ha): 60
Pre-emerge herbicidal activity, phytotoxicity rating AMARE ([12]; 250 g ai/ha): 100
Post-emerge phytotoxicity rating RICE (crop damage) ([13]; Rate 63 g ai/ha): 0
Post-emerge phytotoxicity rating RICE (crop damage) ([13]; Rate 250 g ai/ha): 10
Post-emerge phytotoxicity rating CORN (crop damage) ([14]; Rate 63 g ai/ha): 30
Post-emerge phytotoxicity rating CORN (crop damage) ([14]; Rate 250 g ai/ha): 85
Post-emerge Herbicidal Activity, phytotoxicity rating AMARE ([15]; Rate 63 g ai/ha): 85
Post-emerge Herbicidal Activity, phytotoxicity rating AMARE ([15]; Rate 250 g ai/ha): 90
Post-emerge Herbicidal Activity, phytotoxicity rating CASOB ([16]; Rate 63 g ai/ha): 20
Post-emerge Herbicidal Activity, phytotoxicity rating CASOB ([16]; Rate 250 g ai/ha): 80
Post-emerge Herbicidal Activity, phytotoxicity rating IPOHE ([17]; Rate 63 g ai/ha): 40
Post-emerge Herbicidal Activity, phytotoxicity rating IPOHE ([17]; Rate 250 g ai/ha): 70
Post-emerge Herbicidal Activity, phytotoxicity rating SETVI ([18]; Rate 63 g ai/ha): 30
Post-emerge Herbicidal Activity, phytotoxicity rating SETVI ([18]; Rate 250 g ai/ha): 40
Post-emerge Herbicidal Activity, phytotoxicity rating CHEAL ([19]; Rate 63 g ai/ha): 90
Post-emerge Herbicidal Activity, phytotoxicity rating CHEAL ([19]; Rate 250 g ai/ha): 99
Post-emerge Herbicidal Activity, phytotoxicity rating AMBEL ([20]; Rate 63 g ai/ha): 80
Post-emerge Herbicidal Activity, phytotoxicity rating AMBEL ([20]; Rate 250 g ai/ha): 80
Post-emerge Herbicidal Activity, phytotoxicity rating DIGSA ([21]; Rate 63 g ai/ha): 50
Post-emerge Herbicidal Activity, phytotoxicity rating DIGSA ([21]; Rate 250 g ai/ha): 60
Post-emerge Herbicidal Activity, phytotoxicity rating ECHCG ([22]; Rate 63 g ai/ha): 98
Post-emerge Herbicidal Activity, phytotoxicity rating ECHCG ([22]; Rate 250 g ai/ha): 99
Post-emerge Herbicidal Activity, phytotoxicity rating ABUTH ([23]; Rate 63 g ai/ha): 10
Post-emerge Herbicidal Activity, phytotoxicity rating ABUTH ([23]; Rate 250 g ai/ha): 85

From patent publication US6355799B1, “Substituted benzene compounds, process for their preparation, and herbicidal and defoliant compositions containing them” (ISK Americas Incorporated, priority 1997, dated 2002)
